The subject of test [1] is GR-GFP chimera. The test can be described thus: Nuclear Transfer Induction assay (NTI), monourethane ligands, HeLa cells. It is filed as cell-based. As to conditions: 1 hr. The procedure:
Conditions: HeLa cells are transiently transfected by CaPO4 with an expression vector encoding a GR-GFP chimera (5 μg in transfection cocktail, 4 cm diameter dishes, DMEM with 3% FCS). After 24 hour expression, ligand is added for 1 hr and cells are fixed with formaldehyde (5 min 4° C.) and inspected by fluorescence microscopy. Fluorescent cells are counted and divided into different classes according to ‘cytoplasmic’ (C) versus ‘nuclear’ (N) localisation of fluorescence.
First column: “Conditions”: Name of compounds added (marked at top: ‘//ligand’), and their concentration (in parentheses) and assay number (01 through 21).
Values are given as percentage of cells displaying the corresponding localisatidn, within each tested condition the sum is 100%.

Test [2] concerns CV-1 cells reconstituted with exogenous GR. The test can be described thus: Transfection enhancement, CMV-LacZ reporter, CV-1 cells reconstituted with exogenous GR. It is filed as cell-based, monkey. The procedure:
Conditions: CV-1 cells are first infected with an adenovirus system allowing expression of GR in >90% of the cells (S. B. Verca, unpublished). After 24 hours the cells are; transfected with an expression vector that is constitutively expressing the reporter gene LacZ (CMV-LacZ). Transfection conditions and analysis of LacZ reporter are the same as described in Example 7 legend. Transfection is performed O/N and after rinsing of the precipitate the cells are further incubated for 24 hours. LacZ levels are determined from cell extracts with a chemiluminescence LacZ enzyme assay (Galactolight plus, Tropix). The relative luminescence from each extract is given. Each value represents an individual extract. “Induction”: relative reporter gene activity (values divided by value of assay in lane 9, true negative control for liganding), rel/RLU=(RLU:protein)×1000, net=rel/RLU−600 (600=rel/RLU value approximately corresponding to rel/RLU value of mock transfection).

Test [3] has as its system HUH-7 cells. The test can be described thus: Transfection enhancement, CMV-LacZ reporter, HUH-7 cells. It is filed as cell-based, human. The procedure: Conditions: HUH-7 cells are human hepatoma cells that contain substantial amounts of glucocorticoid receptor. The cells are transfected with an expression vector that is constitutively expressing the reporter gene LacZ (CMV-LacZ). Transfection conditions and analysis of LacZ reporter are the same as described in Example 7 legend. Transfection is performed O/N and after rinsing of the precipitate the cells are further incubated for 24 hours. LacZ levels are determined from cell extracts with a chemiluminescence LacZ enzyme assay (Galactolight plus, Tropix). The relative luminescence from each extract is given. Each value represents an individual extract. “Induction”: relative reporter gene activity (values divided by value of assay in lane 9, true negative control for DNA liganding). rel/RLU=(RLU:protein)×1000; net=rel/RLU−600 (600=rel/RLU value approximately corresponding to rel/RLU value of mock transfection).

Test [4] concerns CV-1 cells reconstituted with exogenous GR. Put plainly: Transfection enhancement, CMV-LacZ reporter, CV-1 cells reconstituted with exogenous GR. The format is cell-based, monkey. Conditions: CV-1 cells that have not been supplemented with GR; data not shown.
The test system of test [5] is 3Y1 cells. Put plainly: Transfection enhancement, CMV-LacZ reporter, CaPO4 transfection of 3Y1 cells. As to conditions: for light units (relative luminescence, LacZ): 5 μg reporter, 3Y1. It is filed as cell-based, rat. Here is the method:
Conditions: 3Y1 cells are transfected with an expression vector that is constitutively expressing the reporter gene LacZ (CMV-LacZ). Transfection conditions are identical throughout the various samples (total 10-12 μq DNA for 4 cm dishes). In some samples the DNA used for the transfection cocktail is pre-incubated with various conjugates at the given concentrations. The concentrations are calculated to give from 10−8 to 10−6 M after dispersing the CaPO4 precipitate in the recipient dish (5 ml volume). Transfection is performed O/N and after rinsing of the precipitate the cells are further incubated for 24 hours. LacZ levels are determined from cell extracts with a chemiluminescence LacZ enzyme assay (Galactolight plus. Tropix). The relative luminescence from each extract is given in RLU/mg*1000.
Cell culture. Cells are cultivated in DMEM supplemented with serum and antibiotica according to standard conditions (typically 10% FCS and Pen/Strep as antibiotica). At the day of transfection, cells are trypsinized and seeded at around 25-30% confluency. Cells are allowed to adhere to dish for 4-6 hours prior to transfection.
DNA pre-incubation (example for conditions that give5×10 exp (−6) Molar final concentration of the CL-C4-EtBr conjugate):
5 microgram of CMV-LacZ DNA (in 10 microliter TE) are mixed with 10 nmoles of hormone derivative (10 microliters stock solution) and incubated for 10 min at room temperature (final volume: 20 ul). The DNA/cortisol-C4-ethidum mix is then supplemented with 7 micrograms sheared calf thymus carrier DNA (in 14 microliters TE) and bidistilled water to give a final volume of 125 microliters.
Transfection by CaPO4: to each transfection sample (125 microliter volume DNA+water). 125 microliters of Ca ++ mix are added, and the mix is incubated for 5-10 min at room temperature. Each sample is then supplemented with 250 microliter of Pi-mix (with simultaneous mixing by up-down pipetting) and is further incubated 10 minutes at room temperature after which the cocktail is poured on top of the medium (5 ml) of each cell culture dish (4 cm diameter). The optimal time of incubation after Pi-mix addition is pre-determined by prior evaluation (size of the precipitate) of parallel samples. The precipitate is allowed to deposit onto the cells for 15 hours (incubation of 37 degrees, 5% CO2). The cells are then rinsed twice with Tris-buffered Saline, supplemented with fresh medium and further incubated under standard conditions. To analyze LacZ reporter gene function, the cells are either fixed or harvested 24 hours after precipitate removal.
Variation of parameters: samples in which the C1-C4-EtBr conjugates (or control compounds) are used at different concentrations, are similarly treated, except that the concentration of the stock solution in ethanol is correspondingly varied.

Test [6] relates to pBR322, linearized with HindIII. Put plainly: DNA cross-linking by 365 nm UV irradiation, alkaline gel electrophoresis. The format is biochemical. As to conditions: 5 nmoles, 1 microgram DNA, 20 min 365 nm UV. Here is the method:
DNA: CsCl purified pBR322, linearized with HindIII and resuspended in TE at a concentration of 30 nanogram/microliter hormone derivative: cortisol-C4psoralen resuspended in 100% methanol at a concentration of 10 exp(−3) Molar psoralen (Fluka) resuspended in 100% ethanol at a concentration of 10 exp(−3)Molar.
Irradiation buffer: 50 mM Tris (pH=7.5), 0.1 mM EDTA, 10 mM NaCl, 10 mM MgCl2 crosslinker apparatus: Bio-Link (BLX) equipped with 4 UV lamps (T-8.L, 365 nanometer nominal wave length) 1 microgram of DNA (in 33 microliter) is mixed at room temperature with 5 nmoles cortisol-C4-psoralen or plain psoralen (either in 5 microliter) and 33 microliter irradiation buffer and pipetted into a well (final volume: 71 microliter) The 96× wells plate is then covered by its plastic lid and put on top of an ice-bed in a plastic box inside the crosslinker apparatus. The cooled microwell plate is irradiated for 20 min with 365 nm UV light (corresponds to an approximate value of 16 joules/square cm). The cross-linked products are then precipitated 2 times with ethanol and resuspended in TE. The products are compared to non-irradiated samples by alkaline gel electrophoresis, where cross-linked DNA maintains its double-stranded molecular weight.

Each structure is given as a SMILES string.

For the molecule `CC[n+]1c(-c2ccccc2)c2cc(NC(=O)CCNC(=O)OCC(=O)[C@@]3(O)CCC4C5CCC6=CC(=O)CCC6(C)C5C(O)CC43C)ccc2c2ccc(N)cc21` (stereo partly drawn) [CL-C4-EtBr], the “C < N, percentage of cells” value is 45% in test [1] (ligand 1.10-6M) and 9% in test [1] (ligand 1.10-7M). Besides, the “C << N, percentage of cells” value in test [1] (ligand 1.10-6M) and in test [1] (ligand 1.10-7M) was 0% each time. Moreover, the “C = N, percentage of cells” value in test [1] (ligand 1.10-6M) was 55%; in test [1] (ligand 1.10-7M) it was 74%. The entries for the “C > N, percentage of cells” value in test [1] (ligand 1.10-6M) and in test [1] (ligand 1.10-7M) were 0% and 17%, respectively. In addition, the “C >> N, percentage of cells” value in test [1] (ligand 1.10-6M) and in test [1] (ligand 1.10-7M) was 0% in each case. Also, the improvement of expression in test [2] (lane 06 (10-6) versus lanes 7-9, CV-1 with GR) was 15-20 fold; in test [3] (lane 07 (10-6) versus lanes 8-9, HUH-7), 7-8 fold; in test [5] (lane 10 (10^-6M) versus lanes 11-13, 3Y1), 5-7 fold. Besides, the RLU in test [2] (ligand 10-6, CV-1 with GR) came to 10010; in test [2] (ligand 10-7, CV-1 with GR), 1988; in test [2] (ligand 10-8, CV-1 with GR), 1211; in test [3] (ligand 10-6, HUH-7), 629514; in test [3] (ligand 10-7, HUH-7), 198082. Also, the “induction (relative reporter gene activity, divided by value of lane 9)” value in test [2] (ligand 10-6, CV-1 with GR) is reported as 17.3; in test [2] (ligand 10-7, CV-1 with GR) it was 2.75; in test [2] (ligand 10-8, CV-1 with GR), 1.33; in test [3] (ligand 10-6, HUH-7), 7.84; in test [3] (ligand 10-7, HUH-7), 1.95. In addition, the “net = rel/RLU−600” value in test [2] (ligand 10-6, CV-1 with GR) was found to be 13992; in test [2] (ligand 10-7, CV-1 with GR), 2232; in test [2] (ligand 10-8, CV-1 with GR), 1075. Moreover, the “rel/RLU = (RLU:protein)×1000” value in test [2] (ligand 10-6, CV-1 with GR) was found to be 14592; in test [2] (ligand 10-7, CV-1 with GR), 2831.9; in test [2] (ligand 10-8, CV-1 with GR) it was 1675. Further, the net in test [3] (ligand 10-6, HUH-7) is given as 543; in test [3] (ligand 10-7, HUH-7), 135. The rel/RLU is on record as 673.3 in test [3] (ligand 10-6, HUH-7) and 265.2 in test [3] (ligand 10-7, HUH-7). In addition, the “SMGD effect (transfection enhancement)” value in test [4] is given as “No SMGD effect”. The “light units (relative luminescence, LacZ)” value in test [5] (ligand 10^-6M) is given as 7250 RLU/mg*1000; in test [5] (ligand 10^-7M), 3750 RLU/mg*1000; in test [5] (ligand 10^-8M), 2750 RLU/mg*1000.
On to `Cc1oc2c(C)c3oc(=O)cc(C)c3cc2c1CNC(=O)CCNC(=O)OCC(=O)[C@@]1(O)CCC2C3CCC4=CC(=O)CCC4(C)C3C(O)CC21C` (stereo partly drawn) [CL-C4-Pso], for which, in test [1] (ligand 1.10-6M), the “C < N, percentage of cells” value amounted to 63%; the “C << N, percentage of cells” value is listed as 8%; the “C = N, percentage of cells” value is 29%; the “C > N, percentage of cells” value amounted to 0%. Also, the “C >> N, percentage of cells” value in test [1] (ligand 1.10-6M) is 0%. Besides, in test [1] (ligand 1.10-7M), the “C < N, percentage of cells” value worked out at 5%; the “C << N, percentage of cells” value stood at 0%; the “C = N, percentage of cells” value stood at 75%; the “C > N, percentage of cells” value was 20%. For the same molecule, the “C >> N, percentage of cells” value in test [1] (ligand 1.10-7M) is 0%. The DNA cross-linking efficiency entry in test [6] is recorded as “as efficient as cross-linking with free psoralen”.

Values taken from patent US6753424B1, “Conjugates of DNA interacting groups with steroid hormones for use as nucleic acid transfection agents” (priority 1998, dated 2004).
